From patent US10231954B2, “Neurodegenerative therapies” (LYTIX BIOPHARMA AS, priority 2014, dated 2019)

Legend:
Assay type in all cases: biochemical
TIE2 = TIE2 (Homo sapiens, UniProt Q02763); test: Kinase profiling TIE2; details: 100 micromolar inhibitor concentration, 100 is no change; for remaining activity at 100 µM: read-out: residual kinase activity, TIE2
From the text: (§1) Any value less that 25 is considered to be highly significant inhibition.

MAPKAP-K3 = MAPKAP-K3 (Homo sapiens, UniProt Q16644); test: Kinase profiling MAPKAP-K3; details: 100 micromolar inhibitor concentration, 100 is no change; for remaining activity at 100 µM: read-out: residual kinase activity, MAPKAP-K3
From the text: as §1

MPSK1 = MPSK1 (Homo sapiens, UniProt O75716); test: Kinase profiling MPSK1; details: 100 micromolar inhibitor concentration, 100 is no change; for remaining activity at 100 µM: read-out: residual kinase activity, MPSK1
From the text: as §1

CDK9-Cyclin T1 = CDK9-Cyclin T1 (Homo sapiens, UniProt P50750); test: Kinase profiling CDK9-Cyclin T1; details: 100 micromolar inhibitor concentration, 100 is no change; for remaining activity at 100 µM: read-out: residual kinase activity, CDK9-Cyclin T1
From the text: as §1

CHK1 = target: T1, CHK1 (Homo sapiens, UniProt O14757); test: Kinase profiling CHK1; details: 100 micromolar inhibitor concentration, 100 is no change; for remaining activity at 100 µM: read-out: residual kinase activity, CHK1
T1 sequence (O14757 1-476): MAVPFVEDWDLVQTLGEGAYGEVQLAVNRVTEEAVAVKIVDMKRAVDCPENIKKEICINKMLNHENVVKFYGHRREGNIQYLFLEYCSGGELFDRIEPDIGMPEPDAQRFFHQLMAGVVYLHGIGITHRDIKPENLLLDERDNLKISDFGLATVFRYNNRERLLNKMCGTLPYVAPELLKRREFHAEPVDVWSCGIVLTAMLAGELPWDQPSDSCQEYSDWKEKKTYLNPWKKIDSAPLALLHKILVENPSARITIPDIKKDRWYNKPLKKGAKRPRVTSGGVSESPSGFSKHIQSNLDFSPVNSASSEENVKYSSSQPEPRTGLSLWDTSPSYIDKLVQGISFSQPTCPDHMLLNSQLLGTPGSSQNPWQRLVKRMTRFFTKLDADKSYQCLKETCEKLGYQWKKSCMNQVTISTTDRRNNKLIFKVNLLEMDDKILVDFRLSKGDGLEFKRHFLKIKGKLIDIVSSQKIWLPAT
From the text: as §1

IRAK1 = IRAK1 (Homo sapiens, UniProt P51617); test: Kinase profiling IRAK1; details: 100 micromolar inhibitor concentration, 100 is no change; for remaining activity at 100 µM: read-out: residual kinase activity, IRAK1
From the text: as §1

Aurora A = target: T2, Aurora A (Homo sapiens, UniProt O14965); test: Kinase profiling Aurora A; details: 100 micromolar inhibitor concentration, 100 is no change; for remaining activity at 100 µM: read-out: residual kinase activity, Aurora A
T2 sequence (O14965 1-403): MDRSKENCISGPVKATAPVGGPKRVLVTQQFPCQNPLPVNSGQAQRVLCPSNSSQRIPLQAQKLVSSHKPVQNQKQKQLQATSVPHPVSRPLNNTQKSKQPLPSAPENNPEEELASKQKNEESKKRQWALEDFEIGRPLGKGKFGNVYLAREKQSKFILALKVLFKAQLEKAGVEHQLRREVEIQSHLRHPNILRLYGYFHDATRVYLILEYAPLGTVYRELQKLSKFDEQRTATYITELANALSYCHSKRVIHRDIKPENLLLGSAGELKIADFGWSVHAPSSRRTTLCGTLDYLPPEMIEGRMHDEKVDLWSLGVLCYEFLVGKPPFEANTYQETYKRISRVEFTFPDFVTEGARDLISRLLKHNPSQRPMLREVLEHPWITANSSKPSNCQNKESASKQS
From the text: as §1

PHK = test: Kinase profiling PHK; details: 100 micromolar inhibitor concentration; 100 is no change
From the text: as §1

TESK1 = TESK1 (Homo sapiens, UniProt Q15569); test: Kinase profiling TESK1; details: 100 micromolar inhibitor concentration, 100 is no change; for remaining activity at 100 µM: read-out: residual kinase activity, TESK1
From the text: as §1

ULK1 = target: T3, ULK1 (Homo sapiens, UniProt O75385); test: Kinase profiling ULK1; details: 100 micromolar inhibitor concentration, 100 is no change; for remaining activity at 100 µM: read-out: residual kinase activity, ULK1
T3 sequence (O75385 1-1050): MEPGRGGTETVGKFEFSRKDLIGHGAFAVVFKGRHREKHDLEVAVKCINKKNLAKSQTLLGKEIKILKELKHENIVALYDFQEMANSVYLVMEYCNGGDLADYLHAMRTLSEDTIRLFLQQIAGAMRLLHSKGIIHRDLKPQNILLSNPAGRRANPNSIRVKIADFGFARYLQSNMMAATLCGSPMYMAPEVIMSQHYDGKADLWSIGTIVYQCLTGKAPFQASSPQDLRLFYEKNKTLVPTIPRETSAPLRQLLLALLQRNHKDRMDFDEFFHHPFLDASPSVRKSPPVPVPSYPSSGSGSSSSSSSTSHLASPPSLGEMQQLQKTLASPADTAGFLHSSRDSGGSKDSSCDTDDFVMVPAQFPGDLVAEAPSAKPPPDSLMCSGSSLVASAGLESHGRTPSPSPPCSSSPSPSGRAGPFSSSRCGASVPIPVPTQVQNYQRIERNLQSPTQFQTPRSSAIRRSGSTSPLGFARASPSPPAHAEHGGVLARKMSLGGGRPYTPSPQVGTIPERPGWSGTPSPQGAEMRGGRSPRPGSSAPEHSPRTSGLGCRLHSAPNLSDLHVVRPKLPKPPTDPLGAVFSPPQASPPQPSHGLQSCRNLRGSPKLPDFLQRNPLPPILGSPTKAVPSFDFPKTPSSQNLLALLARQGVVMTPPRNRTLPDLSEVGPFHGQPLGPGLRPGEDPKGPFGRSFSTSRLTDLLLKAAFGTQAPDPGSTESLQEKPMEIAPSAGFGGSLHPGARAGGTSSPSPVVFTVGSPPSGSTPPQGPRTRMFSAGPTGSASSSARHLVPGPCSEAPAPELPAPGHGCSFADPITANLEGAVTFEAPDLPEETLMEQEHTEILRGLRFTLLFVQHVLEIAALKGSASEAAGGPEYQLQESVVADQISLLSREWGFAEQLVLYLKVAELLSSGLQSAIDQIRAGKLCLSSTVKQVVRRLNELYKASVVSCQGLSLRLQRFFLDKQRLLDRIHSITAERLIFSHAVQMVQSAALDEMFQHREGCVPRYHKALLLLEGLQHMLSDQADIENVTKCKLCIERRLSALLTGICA
From the text: as §1

PRAK = target: T4, PRAK (Homo sapiens, UniProt Q8IW41); test: Kinase profiling PRAK; details: 100 micromolar inhibitor concentration, 100 is no change; for remaining activity at 100 µM: read-out: residual kinase activity, PRAK
T4 sequence (Q8IW41 1-473): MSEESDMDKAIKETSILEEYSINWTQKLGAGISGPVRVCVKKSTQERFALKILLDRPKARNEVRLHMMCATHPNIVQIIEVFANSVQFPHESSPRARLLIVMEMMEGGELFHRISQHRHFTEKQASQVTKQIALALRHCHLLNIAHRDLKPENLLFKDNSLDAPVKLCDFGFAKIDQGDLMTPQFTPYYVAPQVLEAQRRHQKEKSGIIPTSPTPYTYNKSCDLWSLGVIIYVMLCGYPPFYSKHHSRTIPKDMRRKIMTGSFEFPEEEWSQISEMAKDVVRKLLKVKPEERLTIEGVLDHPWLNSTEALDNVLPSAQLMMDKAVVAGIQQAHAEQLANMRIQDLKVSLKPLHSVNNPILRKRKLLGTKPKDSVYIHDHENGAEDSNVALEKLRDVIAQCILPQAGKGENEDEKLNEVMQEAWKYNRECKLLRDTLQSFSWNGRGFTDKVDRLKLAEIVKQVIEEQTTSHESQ
From the text: as §1

MNK1 = MNK1 (Homo sapiens, UniProt Q9BUB5); test: Kinase profiling MNK1; details: 100 micromolar inhibitor concentration, 100 is no change; for remaining activity at 100 µM: read-out: residual kinase activity, MNK1
From the text: as §1

Chain of TIE2 (Q02763 23-1124, species assumed): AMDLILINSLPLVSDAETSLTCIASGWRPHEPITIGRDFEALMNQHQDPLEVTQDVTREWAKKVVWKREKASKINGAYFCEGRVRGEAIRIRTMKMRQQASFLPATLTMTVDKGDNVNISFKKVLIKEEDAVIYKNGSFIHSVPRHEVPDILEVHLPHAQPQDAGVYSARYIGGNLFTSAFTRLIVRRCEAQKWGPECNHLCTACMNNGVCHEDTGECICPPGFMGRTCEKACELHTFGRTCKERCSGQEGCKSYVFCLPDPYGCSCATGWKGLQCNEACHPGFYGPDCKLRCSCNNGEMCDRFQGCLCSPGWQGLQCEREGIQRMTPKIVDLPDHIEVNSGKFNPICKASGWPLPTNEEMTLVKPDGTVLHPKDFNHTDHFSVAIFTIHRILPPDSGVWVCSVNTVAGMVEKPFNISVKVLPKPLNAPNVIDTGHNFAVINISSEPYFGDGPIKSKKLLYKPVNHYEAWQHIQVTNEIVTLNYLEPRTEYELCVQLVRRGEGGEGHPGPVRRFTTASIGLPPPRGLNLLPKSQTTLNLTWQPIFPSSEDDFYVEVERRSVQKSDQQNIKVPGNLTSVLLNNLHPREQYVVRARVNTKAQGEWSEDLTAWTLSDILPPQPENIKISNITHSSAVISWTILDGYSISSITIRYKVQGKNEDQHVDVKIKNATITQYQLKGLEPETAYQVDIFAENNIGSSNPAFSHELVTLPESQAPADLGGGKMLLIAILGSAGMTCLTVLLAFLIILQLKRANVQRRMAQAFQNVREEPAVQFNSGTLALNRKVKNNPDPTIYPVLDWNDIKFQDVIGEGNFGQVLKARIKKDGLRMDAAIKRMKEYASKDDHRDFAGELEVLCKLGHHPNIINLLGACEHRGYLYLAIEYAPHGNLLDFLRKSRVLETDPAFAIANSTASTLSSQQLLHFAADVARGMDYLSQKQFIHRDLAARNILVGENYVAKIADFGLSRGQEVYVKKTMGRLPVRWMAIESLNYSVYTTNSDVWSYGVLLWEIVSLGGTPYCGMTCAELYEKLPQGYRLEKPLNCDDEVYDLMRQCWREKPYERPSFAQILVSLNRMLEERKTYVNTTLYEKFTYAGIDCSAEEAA
Chain of IRAK1 (P51617 whole entry, species assumed): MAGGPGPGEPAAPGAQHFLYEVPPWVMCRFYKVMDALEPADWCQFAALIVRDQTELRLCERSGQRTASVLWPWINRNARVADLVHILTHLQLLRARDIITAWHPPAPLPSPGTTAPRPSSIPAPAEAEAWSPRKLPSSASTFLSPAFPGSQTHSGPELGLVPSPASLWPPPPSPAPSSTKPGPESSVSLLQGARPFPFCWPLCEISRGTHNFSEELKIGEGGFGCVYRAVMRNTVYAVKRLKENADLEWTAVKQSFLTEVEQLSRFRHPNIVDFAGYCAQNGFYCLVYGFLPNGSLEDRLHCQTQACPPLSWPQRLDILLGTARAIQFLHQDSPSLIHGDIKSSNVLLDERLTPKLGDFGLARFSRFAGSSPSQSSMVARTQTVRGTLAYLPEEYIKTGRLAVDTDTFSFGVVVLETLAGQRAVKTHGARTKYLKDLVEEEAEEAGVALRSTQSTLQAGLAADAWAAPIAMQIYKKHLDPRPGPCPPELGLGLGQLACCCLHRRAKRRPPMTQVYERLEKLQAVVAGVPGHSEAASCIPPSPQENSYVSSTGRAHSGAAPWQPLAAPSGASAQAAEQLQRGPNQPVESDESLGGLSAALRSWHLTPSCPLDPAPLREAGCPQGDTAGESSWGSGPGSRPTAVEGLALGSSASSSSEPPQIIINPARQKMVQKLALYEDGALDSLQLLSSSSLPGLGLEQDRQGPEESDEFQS
Chain of MAPKAP-K3 (Q16644 whole entry, species assumed): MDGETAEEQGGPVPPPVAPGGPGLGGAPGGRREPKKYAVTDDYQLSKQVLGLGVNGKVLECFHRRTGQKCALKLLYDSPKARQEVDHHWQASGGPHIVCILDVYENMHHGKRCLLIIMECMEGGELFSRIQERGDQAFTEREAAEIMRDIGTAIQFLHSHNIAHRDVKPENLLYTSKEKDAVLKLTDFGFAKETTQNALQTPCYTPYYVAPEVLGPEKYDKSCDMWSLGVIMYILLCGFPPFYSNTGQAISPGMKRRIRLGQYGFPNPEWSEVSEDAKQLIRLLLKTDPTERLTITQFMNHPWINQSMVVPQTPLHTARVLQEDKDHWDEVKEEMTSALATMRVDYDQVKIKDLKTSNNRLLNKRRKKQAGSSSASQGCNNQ
Chain of TESK1 (Q15569 whole entry, species assumed): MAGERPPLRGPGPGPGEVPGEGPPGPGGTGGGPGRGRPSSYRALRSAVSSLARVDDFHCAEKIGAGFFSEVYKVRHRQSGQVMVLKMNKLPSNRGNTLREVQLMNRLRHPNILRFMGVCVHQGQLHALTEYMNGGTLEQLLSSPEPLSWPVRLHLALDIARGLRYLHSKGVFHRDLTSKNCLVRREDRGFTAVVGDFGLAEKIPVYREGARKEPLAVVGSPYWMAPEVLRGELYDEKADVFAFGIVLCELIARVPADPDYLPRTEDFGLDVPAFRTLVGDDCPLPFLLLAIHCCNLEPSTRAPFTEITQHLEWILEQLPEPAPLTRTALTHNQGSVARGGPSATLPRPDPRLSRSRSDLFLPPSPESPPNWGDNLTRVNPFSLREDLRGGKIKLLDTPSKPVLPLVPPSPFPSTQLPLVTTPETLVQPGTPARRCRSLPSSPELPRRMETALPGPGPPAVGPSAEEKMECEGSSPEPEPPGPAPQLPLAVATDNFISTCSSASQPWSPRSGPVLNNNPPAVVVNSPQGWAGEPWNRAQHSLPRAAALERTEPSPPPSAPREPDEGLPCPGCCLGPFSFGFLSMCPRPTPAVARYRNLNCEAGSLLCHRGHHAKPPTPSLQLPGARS
Chain of MPSK1 (O75716 whole entry, species assumed): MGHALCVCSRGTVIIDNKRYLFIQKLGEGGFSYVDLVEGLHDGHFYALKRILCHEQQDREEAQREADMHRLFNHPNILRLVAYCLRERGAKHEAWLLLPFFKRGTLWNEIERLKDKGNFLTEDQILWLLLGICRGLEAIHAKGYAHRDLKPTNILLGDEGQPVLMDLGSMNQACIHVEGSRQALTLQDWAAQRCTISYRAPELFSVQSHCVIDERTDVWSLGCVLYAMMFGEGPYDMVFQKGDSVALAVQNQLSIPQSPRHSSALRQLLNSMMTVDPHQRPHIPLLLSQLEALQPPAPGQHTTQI
Chain of CDK9-Cyclin T1 (P50750 whole entry): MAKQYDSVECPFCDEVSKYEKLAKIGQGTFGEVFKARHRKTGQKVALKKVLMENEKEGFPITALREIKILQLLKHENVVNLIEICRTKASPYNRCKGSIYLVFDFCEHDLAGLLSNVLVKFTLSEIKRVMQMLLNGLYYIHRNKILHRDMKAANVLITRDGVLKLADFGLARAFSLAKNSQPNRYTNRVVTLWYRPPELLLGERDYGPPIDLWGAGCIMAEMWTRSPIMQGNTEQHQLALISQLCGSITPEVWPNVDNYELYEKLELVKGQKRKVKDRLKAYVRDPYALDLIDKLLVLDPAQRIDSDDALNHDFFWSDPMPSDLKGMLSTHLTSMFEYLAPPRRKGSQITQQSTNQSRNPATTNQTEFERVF
Chain of CDK9-Cyclin T1 (O60563 whole entry partner): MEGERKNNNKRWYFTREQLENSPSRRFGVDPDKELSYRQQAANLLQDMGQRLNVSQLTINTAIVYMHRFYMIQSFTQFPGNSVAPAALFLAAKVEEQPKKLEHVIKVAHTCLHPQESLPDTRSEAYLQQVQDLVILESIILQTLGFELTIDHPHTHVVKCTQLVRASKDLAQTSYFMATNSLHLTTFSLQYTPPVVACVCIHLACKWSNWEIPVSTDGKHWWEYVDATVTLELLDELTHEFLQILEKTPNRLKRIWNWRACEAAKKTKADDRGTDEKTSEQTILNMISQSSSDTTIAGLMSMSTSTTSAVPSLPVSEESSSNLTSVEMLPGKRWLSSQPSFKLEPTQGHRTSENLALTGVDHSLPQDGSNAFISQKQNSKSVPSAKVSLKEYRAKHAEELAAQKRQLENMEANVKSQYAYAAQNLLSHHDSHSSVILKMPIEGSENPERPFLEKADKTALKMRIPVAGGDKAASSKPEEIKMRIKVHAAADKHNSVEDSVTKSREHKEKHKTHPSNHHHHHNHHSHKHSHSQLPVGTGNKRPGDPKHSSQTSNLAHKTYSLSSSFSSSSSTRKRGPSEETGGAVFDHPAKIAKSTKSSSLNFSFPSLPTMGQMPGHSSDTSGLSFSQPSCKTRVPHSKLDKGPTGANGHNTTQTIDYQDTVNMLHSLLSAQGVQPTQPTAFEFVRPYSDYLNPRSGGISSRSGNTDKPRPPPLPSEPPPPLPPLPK
Chain of MNK1 (Q9BUB5 whole entry, species assumed): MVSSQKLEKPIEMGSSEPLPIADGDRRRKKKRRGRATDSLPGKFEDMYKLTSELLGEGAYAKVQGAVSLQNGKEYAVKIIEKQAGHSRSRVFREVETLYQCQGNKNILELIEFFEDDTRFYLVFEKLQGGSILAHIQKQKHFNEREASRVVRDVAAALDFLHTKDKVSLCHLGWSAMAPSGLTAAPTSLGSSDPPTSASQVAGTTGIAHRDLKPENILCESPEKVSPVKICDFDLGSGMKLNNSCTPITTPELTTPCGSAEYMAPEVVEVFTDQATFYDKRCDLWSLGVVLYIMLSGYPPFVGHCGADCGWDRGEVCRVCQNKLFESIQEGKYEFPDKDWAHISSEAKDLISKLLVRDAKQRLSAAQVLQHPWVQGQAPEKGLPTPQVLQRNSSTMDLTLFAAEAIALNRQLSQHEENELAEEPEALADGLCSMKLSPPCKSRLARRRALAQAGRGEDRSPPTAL

Structure (SMILES) | remaining activity at 100 µM (TIE2) [%] | remaining activity at 100 µM (MAPKAP-K3) [%] | remaining activity at 100 µM (MPSK1) [%] | remaining activity at 100 µM (CDK9-Cyclin T1) [%] | remaining activity at 100 µM (CHK1) [%] | remaining activity at 100 µM (IRAK1) [%] | remaining activity at 100 µM (Aurora A) [%] | residual kinase activity, PHK (PHK) | remaining activity at 100 µM (TESK1) [%] | residual kinase activity, TIE2 (TIE2) | residual kinase activity, MAPKAP-K3 (MAPKAP-K3) | residual kinase activity, MPSK1 (MPSK1) | residual kinase activity, CDK9-Cyclin T1 (CDK9-Cyclin T1) | residual kinase activity, CHK1 (CHK1) | residual kinase activity, IRAK1 (IRAK1) | residual kinase activity, Aurora A (Aurora A) | residual kinase activity, TESK1 (TESK1) | residual kinase activity, ULK1 (ULK1) | residual kinase activity, PRAK (PRAK) | residual kinase activity, MNK1 (MNK1) | other results
CC(=O)Nc1nc2cc(C(F)(F)F)ccc2s1 [Compound 03-73] | 92 | 93 | 97 | 97 | 110 | 85 | 96 | 91 | 115 | – | – | – | – | – | – | – | – | – | – | – | remaining activity at 100 µM (ULK1): 91%; remaining activity at 100 µM (PRAK): 87%; remaining activity at 100 µM (MNK1): 89%
CC(=O)Nc1nc2cc(C)ccc2s1 [Compound 03-76] | – | – | – | – | – | – | – | 87 | – | 95 | 106 | 91 | 49 | 102 | 59 | 109 | 106 | 82 | 75 | 81 | –
CC(=O)Nc1nc2cc(F)ccc2s1 [Compound 03-77] | 112 | 107 | 86 | 46 | 103 | 46 | 100 | 89 | 106 | – | – | – | – | – | – | – | – | – | – | – | remaining activity at 100 µM (ULK1): 83%; remaining activity at 100 µM (PRAK): 76%; remaining activity at 100 µM (MNK1): 64%
O=C(Nc1nc2ccc(O)cc2s1)c1ccncc1 [Compound 08-42] | – | – | – | – | – | – | – | 58 | – | 80 | 51 | 77 | 66 | 70 | 38 | 103 | 73 | 69 | 74 | 53 | –
O=C(Nc1nc2ccc(O)cc2s1)c1cccnc1 [Compound 08-44] | – | – | – | – | – | – | – | 43 | – | 81 | 38 | 81 | 43 | 78 | 37 | 99 | 70 | 78 | 60 | 19 | –
